Data published in patent publication US20200385370A1 (SYNBLIA THERAPEUTICS, INC., priority 2017, published 2020).

Molecular target: T1, GST tagged IRAK4 (Homo sapiens, UniProt Q9NWZ3)
T1 construct: purchased SignalChem
T1 sequence (Q9NWZ3 1-460): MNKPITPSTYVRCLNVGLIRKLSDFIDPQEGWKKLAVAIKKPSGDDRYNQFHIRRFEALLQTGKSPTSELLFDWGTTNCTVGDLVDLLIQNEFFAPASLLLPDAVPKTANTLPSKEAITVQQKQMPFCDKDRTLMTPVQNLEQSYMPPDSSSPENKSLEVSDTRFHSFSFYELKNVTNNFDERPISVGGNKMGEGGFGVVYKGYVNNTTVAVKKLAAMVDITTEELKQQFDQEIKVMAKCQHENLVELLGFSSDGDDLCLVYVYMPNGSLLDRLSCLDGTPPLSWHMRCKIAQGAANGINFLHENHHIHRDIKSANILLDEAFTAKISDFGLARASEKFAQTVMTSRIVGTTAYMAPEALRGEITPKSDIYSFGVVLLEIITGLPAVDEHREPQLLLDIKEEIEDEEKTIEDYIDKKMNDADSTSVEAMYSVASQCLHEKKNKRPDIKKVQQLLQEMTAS
Test: IRAK4 kinase activity assay, IMAP fluorescence polarization, phosphorylation of fluorescently labeled peptide
Type: biochemical
Conditions: 0.5 nM GST tagged IRAK4, 100 nM peptide substrate, 100 μM ATP, 30 minutes at 25° C.
Protocol: The kinase activity of IRAK4 is measured by its ability to phosphorylate a fluorescently labeled synthetic peptide in the presence of ATP. The assay format is based on the Immobilized Metal Ion Affinity-Based Fluorescence Polarization (IMAP) platform developed by Molecular Devices. Briefly, reaction mixture (20 μL) contains the assay buffer (20 mM Tris.Cl, pH 7.2, 1 mM MgCl2, 1 mM DTT, and 0.02% Tween 20), 0.5 nM GST tagged IRAK4 (SignalChem), 100 nM peptide substrate and 100 μM ATP. The amino acid sequence of the peptide substrate is 5FAM-RKRQGSVRRRVH-COOH (Cat #: RP7030, Molecular Devices). The reaction is initiated by adding substrates ATP and RP7030, and terminated by adding Stop solution (60 μL) after 30 minutes of incubation at 25° C. The Stop solution is prepared with IMAP Progressive Reagent A/B and Binding reagent according to vender's instruction. The extent of phosphorylation of the peptide is measured by changes in Fluorescence Polarization (FP) resulting from binding of phosphate group on the peptide with immobilized metal coordination complexes on the nanoparticles included in the Stop solution. Errors in the calculated IRAK4 IC50 values range from 4-12% from duplicate experiments.

Structure (SMILES) | IC50 [µM]
NC(=O)c1cc2ccnc3c2cc1OCCOCCN1C(=O)CCC1CO3 (centres unmarked) [Compound IX, 4^5-oxo-2,7,10-trioxa-1(1,7)-isoquinolina-4(2,1)-pyrrolidinacyclodecaphane-1^6-carboxamide] | 3 to 10
COc1cc2c(OC[C@@H]3CCC(=O)N3)nccc2cc1C(N)=S [Compound XI, (S)-7-methoxy-1-((5-oxopyrrolidin-2-yl)methoxy)isoquinoline-6-carbothioamide] | 0.5 to 3
NC(=O)c1cc2ccnc3c2cc1OCCOCC(=O)N1CC(CO3)C1 [Compound XIV, 5-oxo-2,7,10-trioxa-1(1,7)-isoquinolina-4(3,1)-azetidinacyclodecaphane-16-carboxamide] | 0.5 to 3
COc1cc2c(N3CCC[C@H](N)C3)nccc2cc1C(N)=O [Compound XX, (S)-1-(3-aminopiperidin-1-yl)-7-methoxyisoquinoline-6-carboxamide] | < 0.5
COc1cc2c(N3CCC[C@H](O)C3)nccc2cc1C(N)=O [Compound XXI, (S)-1-(3-hydroxypiperidin-1-yl)-7-methoxyisoquinoline-6-carboxamide] | 0.5 to 3
CC#Cc1cnc(NC[C@@H]2CCC(=O)N2)c2cc(OC)c(C(N)=O)cc12 [Compound XXII, (S)-7-methoxy-1-(((5-oxopyrrolidin-2-yl)methyl)amino)-4-(prop-1-yn-1-yl) isoquinoline-6-carboxamide] | < 0.5
CCC[C@@H]1CC(=O)N2COCCOc3cc4c(nccc4cc3C(N)=O)OC[C@H]12 [Compound XXIV, (4^2S,4^3R)-4^5-oxo-4^3-propyl-2,6,9-trioxa-1 (1,7)-isoquinolina-4 (2,1)-pyrrolidinacyclononaphane-1^6-carboxamide] | 0.5 to 3
COc1cc2c(N[C@@H]3CCCNC3)nccc2cc1C(N)=O [Compound XXIX, (R)-7-methoxy-1-(piperidin-3-ylamino) isoquinoline-6-carboxamide] | 0.5 to 3
C[C@@H]1CC(=O)N2COCCOc3cc4c(nccc4cc3C(N)=O)OC[C@H]12 [Compound XXV, (4^2S, 4^3R)-4^3-methyl-4^5-oxo-2,6,9-trioxa-1 (1,7)-isoquinolina-4 (2,1)-pyrrolidinacyclononaphane-1^6-carboxamide] | < 0.5
COc1cc2c(N3CCC(C)(CN)CC3)nccc2cc1C(N)=O [Compound XXVI, 1-(4-(aminomethyl)-4-methylpiperidin-1-yl)-7-methoxyisoquinoline-6-carboxamide] | 0.5 to 3
COc1cc2c(N3CCC(N)CC3)nccc2cc1C(N)=O [Compound XXVII, 1-(4-aminopiperidin-1-yl)-7-methoxyisoquinoline-6-carboxamide] | 0.5 to 3
CC[C@@H]1CC(=O)N[C@@H]1CNc1nccc2cc(C(N)=O)c(OC)cc12 [Compound XXVIII, 1-((((2S, 3R)-3-ethyl-5-oxopyrrolidin-2-yl)methyl)amino)-7-methoxyisoquinoline-6-carboxamide] | < 0.5
COc1cc2c(N[C@@H]3CCCN(C(=O)CC#N)C3)nccc2cc1C(N)=O [Compound XXX, (R)-1-((1-(2-cyanoacetyl)piperidin-3-yl)amino)-7-methoxyisoquinoline-6-carboxamide] | 3 to 10
COc1cc2c(S[C@@H]3CCCN(C(=O)CC#N)C3)nccc2cc1C(N)=O [Compound XXXI, (R)-1-((1-(2-cyanoacetyl)piperidin-3-yl)thio)-7-methoxyisoquinoline-6-carboxamide] | 3 to 10
COc1cc2c(N[C@@H]3CCNC3)nccc2cc1C(N)=O [Compound XXXII, (R)-7-methoxy-1-(pyrrolidin-3-ylamino)isoquinoline-6-carboxamide] | 0.5 to 3
COc1cc2c(OCC3CCC(=O)N3)nccc2cc1OC(N)=O (centres unmarked) [II, 7-methoxy-1-((5-oxopyrrolidin-2-yl)methoxy)isoquinolin-6-yl carbamate] | 3 to 10
COc1cc2c(OCC3CCC(=O)N3)nccc2cc1C(=O)NO (centres unmarked) [IV, N-hydroxy-7-methoxy-1-((5-oxopyrrolidin-2-yl)methoxy) isoquinoline-6-carboxamide] | 3 to 10
COc1cc2c(NCC3CCC(=O)N3)nccc2cc1C(N)=O (centres unmarked) [VII, 7-methoxy-1-(((5-oxopyrrolidin-2-yl)methyl)amino) isoquinoline-6-carboxamide] | 0.5 to 3
COc1cc2c(OC[C@@H]3CCC(=O)N3)nccc2cc1C(=O)S [XIII, (S)-7-methoxy-1-((5-oxopyrrolidin-2-yl)methoxy) isoquinoline-6-carbothioic S-acid] | 0.5 to 3
CC[C@@H]1CC(=O)N2COCCOc3cc4c(nccc4cc3C(N)=O)OC[C@H]12 [XIX, (4^2S, 4^3R)-4^3-ethyl-4^5-oxo-2,6,9-trioxa-1 (1,7)-isoquinolina-4 (2,1)-pyrrolidinacyclononaphane-1^6-carboxamide] | 0.5 to 3
NC(=O)c1cc2ccnc3c2cc1OCCOCN1C(=O)OCC1CO3 (centres unmarked) [XVII, 1^2-oxo-3,5,8-trioxa-1(4,3)-oxazolidina-4(1,7)-isoquinolinacyclononaphane-4^6-carboxamide] | 0.5 to 3
NC(=O)c1cc2ccnc3c2cc1OCCOCN1C(=O)CC[C@H]1CO3 [XVIII, (S)-4^5-oxo-2,6,9-trioxa-1(1,7)-isoquinolina-4(2,1)-pyrrolidinacyclononaphane-1^6-carboxamide] | < 0.5
COc1cc2c(ccn2[C@H]2CC[C@H](N)C2)cc1C(N)=O [XXIII, 1-((1S, 3S) 3-aminocyclopentyl)-6-methoxy-1H-indole-5-carboxamide] | 0.5 to 3
CC#Cc1cnc(N2CCC[C@H](N)C2)c2cc(OC)c(C(N)=O)cc12 [XXXIV, (S)-1-(3-aminopiperidin-1-yl)-7-methoxy-4-(prop-1-yn-1-yl)soquinoline-6-carboxamide] | < 0.5
COc1cc2c(N3CCC[C@H](N)C3)ncc(Br)c2cc1C(N)=O [XXXV, (S)-1-(3-aminopiperidin-1-yl)-4-bromo-7-methoxyisoquinoline-6-carboxamide] | 0.5 to 3
COc1cc2c(N3CCC[C@H](N)C3)ncc(C#N)c2cc1C(N)=O [XXXVI, (S)-1-(3-aminopiperidin-1-yl)-4-cyano-7-methoxyisoquinoline-6-carboxamide] | 0.5 to 3
